Results: US5795876A, “Method of inhibiting vascular cell adhesion molecule-1 and treating chronic inflammatory diseases with 2, 6-di-alkyl-4-silyl-phenols” (Hoechst Marion Rousssel, Inc., priority 1997, dated 1998)
Where two headings read alike, the source gives them in different places.

Experiments:
[1] = system: ICAM-1; conditions: vascular endothelial cells; cited from earlier work
[2] = system: VCAM-1; conditions: vascular endothelial cells; cited from earlier work
[3] = system: ICAM-1; assay: Cell surface ELISA for ICAM-1 in human umbilical vein endothelial cells (HUVEC), cytokine-induced (tumor necrosis factor-alpha); format: cell-based; conditions: for inhibition at 50 µM: Homo sapiens, HUVEC, read-out: ICAM-1 (% inh. 50 μM)
Protocol: (§1) Cell Surface ELISA for VCAM-1/ICAM-1
(§2) Proliferating human umbilical vein endothelial cells (HUVEC) or human aortic smooth muscle cells (HASMC) from Clonetics (San Diego, Calif.) were plated onto 96-well plates in 100 μL medium per well at 20,000 cells per cm^2. The cultures were maintained in growth medium (EGM or SMGM2, Clonetics, San Diego, Calif.) for two days prior to addition of cytokines or drugs. Cytokines plus or minus compounds were added for 20 to 24 hours prior to analysis for adhesion molecule levels. Tumor necrosis factor (Genzyme, Cambridge, Mass.) was added to cultures at 500-1000 units/mL. Interleukin-4 (GIBCO-BRL, Gaithersburg, Md.) was added to cultures at 100-200 pg/mL. (Additions were made by transferring 100 μL of cytokines plus compounds serially diluted on a separate 96-well plate into the plates containing cells. The medium on the cultures was not exchanged prior to addition of effectors). The culture medium was removed, and the monolayers were washed twice with Hanks buffered saline solution (HBSS) at room temperature. The primary antibody (anti-human VCAM-1 from Upstate Biotechnology, Inc., Lake Placid, N.Y. or anti-human ICAM-1 from Immunotech, Inc., Westbrook, Me.) was added to each well (1 μg/mL in HBSS plus 5% newborn calf serum, GIBCO-BRL, Gaithersburg, Md.) and incubated at 37° C. for 1 hr. The wells were washed twice with HBSS, then 100 μL of a 1/1000 dilution of goat anti-mouse IgG conjugated to horse radish peroxidase (BioRad, Hercules, Calif.) in HBSS plus 5% newborn calf serum was added to each well and incubated for 1 hr at 37° C. The wells were washed three times with HBSS, then 100 μL of TMB substrate (BioRad, Hercules, Calif.) was added to each well. The reaction was stopped after blue color developed by addition of 50 μL of 1N H2 SO4. Absorbance is measured at 450 nm with a plate reader. IC50 values were determined from curves of absorbance values obtained from serial dilutions of compounds (dissolved in dimethyl sulfoxide).
(§3) The IC50 value is defined as the drug concentration that inhibits the cytokine-induced adhesion molecule expression by 50%. Maximal values for adhesion molecule expression in cytokine-induced cultures was subtracted from the basal level of adhesion molecule expression (minus cytokines) in the cultures to determine the level of induction. […] Each drug concentration was tested in quadruplicate wells. Single point tests of compounds at 50 μM were assayed as described for IC50 determinations, except that the data represent the level of inhibition without correction for basal expression. (Basal adhesion molecule expression was 10-20% of the total induced expression).
(§4) In these experiments, the cells were coincubated with tumor necrosis factor-alpha along with the indicated compounds about 20 to 24 hr before assaying cell surface adhesion molecule expression.
(§5) Table 3 illustrates the activity of selected compounds when eight serial dilutions of drug were tested against cytokine induction of VCAM-1 expression in both vascular endothelial and smooth muscle cells. Subtraction of basal VCAM-1 expression was also used in the calculation of IC50 values. Each compound was also tested in a similar manner for ICAM-1 inhibition. No inhibition of ICAM-1 was detected (up to 100 μM) in vascular smooth muscle cells.

[4] = system: human umbilical vein endothelial cells (HUVEC); assay: Loss of HUVEC adherence to the tissue culture surface (microscope); format: cell-based; conditions: vascular endothelial cells; 50 and 100 μM; observed with a microscope
[5] = system: VCAM-1; assay: Cell surface ELISA for VCAM-1 in human aortic smooth muscle cells (HASMC), cytokine-induced (interleukin-4); format: cell-based; conditions: for inhibition at 50 µM: HASMC; for IC50: HSMC, eight serial dilutions, basal expression subtracted
Protocol: as §1, §2, §3
Table 1 summarizes the ability of various compounds of this invention to inhibit VCAM-1 using human aortic smooth muscle cells (HASMC). In these experiments, the cells were coincubated with interleukin-4 and the compounds listed about 20 hr before assaying cell surface VCAM-1 levels. Each column represents a separate experiment.
as §5

[6] = system: VCAM-1; assay: Cell surface ELISA for VCAM-1 in human umbilical vein endothelial cells (HUVEC), cytokine-induced (tumor necrosis factor-alpha); format: cell-based; conditions: for inhibition at 50 µM: read-out: VCAM-1 (% inh. 50 μM); for IC50: eight serial dilutions, basal expression subtracted
Protocol: as §1, §2, §3, §4, §5

[7] = system: VCAM-1; assay: In vivo inhibition of LPS-induced VCAM-1 upregulation in rabbit aorta (immunohistochemistry); design: species or system New Zealand white rabbits; conditions: 0.4% in diet for three weeks; LPS 40 μg/animal i.v.; aorta 4 hr after LPS; when adequately accumulated
Source text: FIG. 1 illustrates the effect of 2,6-di-t-butyl-4-[(dimethylphenylsilyl)methylthio]phenol (MDL 29,353) on LPS induced VCAM-1 expression in rabbit aorta in vivo. Data are expressed as the percent of the aortic surface endothelium expressing VCAM-1 as measured by immunostaining with an anti-rabbit VCAM-1 antibody.
In Vivo Inhibition of VCAM-1 Upregulation by MDL 29,353 in Rabbit Aorta
New Zealand white rabbits were fed a diet of chow plus or minus 0.4% MDL 29,353 for three weeks prior to challenge with lipopolysaccharide (LPS, 40 μg/animal, i.v. ear vein). The aorta was removed from each animal 4 hr after LPS injection and rinsed briefly in phosphate buffered saline. VCAM-1 was immunohistochemistry was performed by incubating the tissues with RB1/9 antibody (mouse anti-rabbit VCAM-1) at 4° C. overnight. The bound RB1/9 was detected using a biotinylated goat anti-mouse secondary antibody (60 min, RT). VCAM-1 staining was accomplished by addition of streptavidin-alkaline phosphatase conjugate (30 min, RT) followed by an incubation with BT Red (Biotec, 10, RT). Images of the stained tissues were captured using an image analysis system for determination of the percentages of the aortic endothelium showing immunoreactivity with anti-VCAM antibody.

[8] = 50 μM, TNF-alpha, 20 to 24 hr, average of two runs
[9] = HSMC-1 experiment, 50 μM, interleukin-4, about 20 hr, no correction for basal expression, read-out: HSMC-1 (% inh. 50 μM) VCAM-1
[10] = HSMC-2 experiment, 50 μM, interleukin-4, about 20 hr, no correction for basal expression, read-out: HSMC-2 (% inh. 50 μM) VCAM-1
[11] = HSMC-3 experiment, 50 μM, interleukin-4, about 20 hr, no correction for basal expression, read-out: HSMC-3 (% inh. 50 μM) VCAM-1
[12] = average of HSMC-1, HSMC-2, HSMC-3, 50 μM, read-out: VCAM-1 (Avg.) % inh.
[13] = 50 μM, TNF-alpha, 20 to 24 hr, average of three runs
[14] = 20 h, read-out: HSMC-2 (% inh. 50 μM) VCAM-1
[15] = 20 h, read-out: HSMC-3 (% inh. 50 μM) VCAM-1
[16] = 20 h, read-out: HSMC-1 (% inh. 50 μM) VCAM-1

For `S=C(S)N1CCCC1` [pyrollidine dithiocarbamate], the “Inhibition of cytokine-induced expression of ICAM-1” value [1] is given as “not ICAM-1” and the “Inhibition of cytokine-induced expression of VCAM-1” value [2] is given as “inhibit cytokine-induced expression of VCAM-1”.
With `CC(C)(C)c1cc(OC[Si](C)(C)c2ccccc2)cc(C(C)(C)C)c1O` [MDL 103,902, 2,6-Di-t-butyl-4-[(dimethylphenylsilyl)methyloxy]phenol] the “Inhibition of ICAM-1 expression in vascular endothelial cells” value ([3]; 50 and 100 μM, could be accounted for by loss of cell adherence) was “significant inhibition of ICAM-1 expression”, the inhibition at 50 µM [3, 8] was 39% and the “Cell adherence to the tissue culture surface” value [4] was “loss of cell adherence”. It also gave an inhibition at 50 µM [5, 9] of 49%, an inhibition at 50 µM [5, 10] of 60% and an inhibition at 50 µM [5, 11] of 43%. For the same molecule, the inhibition at 50 µM [5, 12] was 50.7%, the IC50 [5] was 5 µM and the inhibition at 50 µM [6, 13] was 25.3%. For the same molecule, the IC50 [6] was 11 µM.
Work on `Cc1cc(OC[Si](C)(C)c2ccccc2)cc(C)c1O` [MDL 103,719, 2,6-Dimethyl-4-[(dimethylphenylsilyl)methyloxy]phenol] yielded an inhibition at 50 µM [3] of 77%, an inhibition at 50 µM [5, 14] of 49% and an inhibition at 50 µM [5, 15] of 42%. The inhibition at 50 µM ([5]; read-out: VCAM-1 (Avg.) % inh.) was 45.5% and the inhibition at 50 µM [6] was 17%.
With `CC(C)(C)c1cc(OC[Si](C)(C)c2ccc(Cl)cc2)cc(C(C)(C)C)c1O` [MDL 104,280, 2,6-Di-t-butyl-4-[(4-chlorophenyldimethylsilyl)methyloxy]phenol] the inhibition at 50 µM [3] was 22%, the inhibition at 50 µM [5, 16] was 54.7% and the inhibition at 50 µM [5, 14] was 63%. The inhibition at 50 µM [5, 15] was 44%, the inhibition at 50 µM ([5]; read-out: VCAM-1 (Avg.) % inh.) was 53.9% and the inhibition at 50 µM [6] was 27.3%.
In the case of `Cc1cc(SC[Si](C)(C)c2ccccc2)cc(C(C)(C)C)c1O` [MDL 104,518, 2-t-butyl-6-methyl-4-[(dimethylphenylsilyl)methylthio]phenol], the inhibition at 50 µM [3] is reported as 78%, the inhibition at 50 µM [5, 16] is reported as 4.4% and the inhibition at 50 µM [5, 14] is reported as 47%. For the same molecule, the inhibition at 50 µM [5, 15] was 26% and the inhibition at 50 µM ([5]; read-out: VCAM-1 (Avg.) % inh.) was 25.8%.
For `CC(=O)N[C@@H](CS)C(=O)O` [N-acetylcysteine], the “Inhibition of cytokine-induced expression of ICAM-1” value [1] is given as “not ICAM-1” and the “Inhibition of cytokine-induced expression of VCAM-1” value [2] is given as “inhibit cytokine-induced expression of VCAM-1”.
For `CC(C)(C)c1cc(SC[Si](C)(C)C)cc(C(C)(C)C)c1O` [MDL 28,235, 2,6-Di-t-butyl-4-[(trimethylsilyl)methylthio]phenol], the inhibition at 50 µM [5, 16] was 7.8%, the inhibition at 50 µM [5, 14] was 18% and the inhibition at 50 µM [5, 15] was 42%. It also gave an inhibition at 50 µM ([5]; read-out: VCAM-1 (Avg.) % inh.) of 22.6% and an inhibition at 50 µM [6] of 4.3%.
Molecule `COc1ccc([Si](C)(C)COc2cc(C(C)(C)C)c(O)c(C(C)(C)C)c2)cc1` [MDL 105,074, 2,6-Di-t-butyl-4-[(dimethyl-4-methoxyphenylsilyl)methyloxy]phenol] has an inhibition at 50 µM [5, 9] of 28.3%, an inhibition at 50 µM [5, 10] of 52% and an inhibition at 50 µM [5, 11] of 47%. It also gave an inhibition at 50 µM [5, 12] of 42.4%, an IC50 [5] of 40 µM and an inhibition at 50 µM [6, 13] of 20%. The IC50 [6] was 12 µM.
In the case of `CC(C)(C)c1cc(SC[Si](C)(C)c2ccccc2)cc(C(C)(C)C)c1O` [MDL 29,353, 2,6-Di-t-butyl-4-[(dimethylphenylsilyl)methylthio]phenol], the inhibition at 50 µM [3, 8] is reported as 6%, the inhibition at 50 µM [5, 9] is reported as 58% and the inhibition at 50 µM [5, 10] is reported as 60%. For the same molecule, the inhibition at 50 µM [5, 11] was 46%, the inhibition at 50 µM [5, 12] was 54.7% and the IC50 [5] was 10 µM. For the same molecule, the inhibition at 50 µM [6, 13] was 8.7%, the IC50 [6] was 19 µM and the “Inhibition of LPS induced VCAM-1 expression in rabbit aortic endothelium (FIG. 1)” value [7] was “can inhibit the LPS induced level of VCAM-1 expression in rabbit aortic endothelium”.
